# In PubChem BioAssay (NCI):
#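 Test compounds were applied to cells in 96-well plates for 48 hours at 5 doses. Definition used: TGI = concentration required for complete inhibition of growth.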
# Columns and labels:
# Assay in all cases: DTP human tumour cell line panel, 48 h
# 786-0 renal = test system: 786-0 renal
# A498 renal = test system: A498 renal
# A549 NSCLC = test system: A549 NSCLC
# ACHN renal = test system: ACHN renal
# BT-549 breast = test system: BT-549 breast
# CAKI-1 renal = test system: CAKI-1 renal
# COLO 205 colon = test system: COLO 205 colon
# DU-145 prostate = test system: DU-145 prostate
# EKVX NSCLC = test system: EKVX NSCLC
# HCC-2998 colon = test system: HCC-2998 colon
# HCT-116 colon = test system: HCT-116 colon
# HCT-15 colon = test system: HCT-15 colon
# HOP-62 NSCLC = test system: HOP-62 NSCLC
# HOP-92 NSCLC = test system: HOP-92 NSCLC
# HS 578T breast = test system: HS 578T breast
# HT29 colon = test system: HT29 colon
# IGROV1 ovarian = test system: IGROV1 ovarian
# K-562 leukemia = test system: K-562 leukemia
# KM12 colon = test system: KM12 colon
# M14 melanoma = test system: M14 melanoma
# MALME-3M melanoma = test system: MALME-3M melanoma
# MCF7 breast = test system: MCF7 breast
# MDA-MB-231 breast = test system: MDA-MB-231 breast
# MDA-MB-435 = test system: MDA-MB-435
# MDA-N = test system: MDA-N
# MOLT-4 leukemia = test system: MOLT-4 leukemia
# NCI-H23 lung = test system: NCI-H23 lung
# NCI-H460 lung = test system: NCI-H460 lung
# NCI-H522 lung = test system: NCI-H522 lung
# NCI/ADR-RES ovarian = test system: NCI/ADR-RES ovarian
# OVCAR-3 ovarian = test system: OVCAR-3 ovarian
# OVCAR-4 ovarian = test system: OVCAR-4 ovarian
# OVCAR-5 ovarian = test system: OVCAR-5 ovarian
# OVCAR-8 ovarian = test system: OVCAR-8 ovarian
# PC-3 prostate = test system: PC-3 prostate
# RPMI-8226 leukemia = test system: RPMI-8226 leukemia
# RXF 393 renal = test system: RXF 393 renal
# SF-268 CNS = test system: SF-268 CNS
# SF-295 CNS = test system: SF-295 CNS
# SK-MEL-2 melanoma = test system: SK-MEL-2 melanoma
# SK-MEL-28 melanoma = test system: SK-MEL-28 melanoma
# SK-MEL-5 melanoma = test system: SK-MEL-5 melanoma
# SK-OV-3 ovarian = test system: SK-OV-3 ovarian
# SNB-19 CNS = test system: SNB-19 CNS
# SNB-75 CNS = test system: SNB-75 CNS
# SW-620 colon = test system: SW-620 colon
# T-47D breast = test system: T-47D breast
# TK-10 renal = test system: TK-10 renal
# U251 CNS = test system: U251 CNS
# UACC-257 melanoma = test system: UACC-257 melanoma
# UACC-62 melanoma = test system: UACC-62 melanoma
# UO-31 renal = test system: UO-31 renal
structure (smiles),measurement,setting,value
C=C[C@@]1(C)CC[C@@H]2[C@@]3(C1)O[C@H]3CC1[C@](C)(C(=O)OC)CCC[C@@]12C (some centres not stated),TGI,786-0 renal,36.8 µM
same,TGI,A498 renal,> 100 µM
same,TGI,A549 NSCLC,54.7 µM
same,TGI,ACHN renal,29.5 µM
same,TGI,BT-549 breast,67.2 µM
same,TGI,CAKI-1 renal,> 100 µM
same,TGI,COLO 205 colon,31.8 µM
same,TGI,DU-145 prostate,> 100 µM
same,TGI,EKVX NSCLC,38.6 µM
same,TGI,HCC-2998 colon,31.6 µM
same,TGI,HCT-116 colon,28.1 µM
same,TGI,HCT-15 colon,35.8 µM
same,TGI,HOP-62 NSCLC,40.6 µM
same,TGI,HOP-92 NSCLC,33.8 µM
same,TGI,HS 578T breast,44.2 µM
same,TGI,HT29 colon,27.1 µM
same,TGI,IGROV1 ovarian,58.4 µM
same,TGI,K-562 leukemia,> 100 µM
same,TGI,KM12 colon,> 100 µM
same,TGI,M14 melanoma,39.7 µM
same,TGI,MALME-3M melanoma,35 µM
same,TGI,MCF7 breast,33.2 µM
same,TGI,MDA-MB-231 breast,58.1 µM
same,TGI,MDA-MB-435,> 100 µM
same,TGI,MDA-N,56.8 µM
same,TGI,MOLT-4 leukemia,42.2 µM
same,TGI,NCI-H23 lung,57.2 µM
same,TGI,NCI-H460 lung,31.3 µM
same,TGI,NCI-H522 lung,31.6 µM
same,TGI,NCI/ADR-RES ovarian,42.1 µM
same,TGI,OVCAR-3 ovarian,31.9 µM
same,TGI,OVCAR-4 ovarian,> 100 µM
same,TGI,OVCAR-5 ovarian,32.3 µM
same,TGI,OVCAR-8 ovarian,40.9 µM
same,TGI,PC-3 prostate,> 100 µM
same,TGI,RPMI-8226 leukemia,65.6 µM
same,TGI,RXF 393 renal,33 µM
same,TGI,SF-268 CNS,38.4 µM
same,TGI,SF-295 CNS,29.3 µM
same,TGI,SK-MEL-2 melanoma,41.4 µM
same,TGI,SK-MEL-28 melanoma,42.1 µM
same,TGI,SK-MEL-5 melanoma,33.7 µM
same,TGI,SK-OV-3 ovarian,69.6 µM
same,TGI,SNB-19 CNS,30.3 µM
same,TGI,SNB-75 CNS,> 100 µM
same,TGI,SW-620 colon,41.9 µM
same,TGI,T-47D breast,55.9 µM
same,TGI,TK-10 renal,51.7 µM
same,TGI,U251 CNS,49.6 µM
same,TGI,UACC-257 melanoma,44.3 µM
same,TGI,UACC-62 melanoma,> 100 µM
same,TGI,UO-31 renal,31.8 µM
